Reference: patent US10751418B2, “Orally bioavailable lipid-based constructs” (SDG, Inc., priority 2007, dated 2020)
No end group written: not given here.

Key:
Type in all cases: in vivo
[1] = system: insulin deficient rats (alloxan and streptozotocin); assay: Liver glycogen after oral GLP-1 in alloxan/streptozotocin treated rats; details: Dose GLP-1 0.01 mg/rat, 2 hours post dosing
Description: Rats were fasted overnight. Subsequently, 800 mg each of alloxan and streptozotocin were dissolved in 40 mL of PBS (pH 7, 0.01M). The fasted rats were then treated immediately with a 0.5 mL IP dose to induce insulin deficiency. The animals were then stabilized overnight with water and food. Following stabilization, the rats were fasted overnight to deplete liver glycogen.
Subsequently, the rats were administered 1.5 g glucose/kg body weight and GLP-1 in the form of a GLP-1 associated with a composition comprising approximately 62 mole percent 1,2 distearoyl-sn-glycero-3-phosphocholine, approximately 22 mole percent dihexadecyl phosphate, and approximately 16 mole percent cholesterol (“associated GLP-1”). In separate experiments, the amount of associated GLP-1 was varied. Liver glycogen was measured chemically at 2 hours post dosing.
As a control, unassociated GLP-1 was gavaged in place of associated GLP-1. In a separate control, GLP-1, in a dose similar to that orally gavaged, was injected intraperitoneally.

[2] = system: mice made diabetic by streptozotocin and alloxan; assay: Blood glucose after oral dosing via drinking water in alloxan-streptozotocin treated mice; details: day seven, 0.1 U/ml in drinking water, tail-vein blood
From the text: Mice used in the present experiment were made diabetic by administering streptozotocin and alloxan. The diabetic animals were then divided into two groups. The control group (11 mice) was orally dosed with regular insulin. The experimental group (7 mice) was orally dosed with a composition comprising insulin and approximately 61 mole percent 1,2 distearoyl-sn-glycero-3-phosphocholine, approximately 22 mole percent dihexadecyl phosphate, approximately 16 mole percent cholesterol, and approximately 1 mole percent poly[Cr-bis(N-2,6-diisopropylphenylcarbamoylmethyl iminodiacetic acid)] (wherein a known portion of the phospholipid component comprised ^14C labeled phospholipid). Dosing was accomplished utilizing the water bottle dosing method described in Experiment 2.
After being made diabetic, […] in both groups were treated identically over a 7 day period and fed with plain food and plain water. Following this 7 day period, rats in the control group were treated for an additional 7 day experimental period with food and regular insulin in the available drinking water at 0.1 U/ml. Over the same 7 day experimental period, the experimental group was fed regular food with the composition of the invention available in the drinking water at 0.1 U/ml. At the end of each 7-day period, blood glucose was measured in a tail-vein sample of blood by a Beckman Blood Glucose Analyzer.

normal, fasted rats = assay: Blood calcium levels after calcitonin administration; details: subcutaneous injection, control rats
Description: Normal, fasted, control rats were given a dose of salmon calcitonin via subcutaneous injection such that an initial 10% reduction in blood calcium was observed. Blood calcium levels were then measured for six hours post injection. An experimental group of rats was given the same effective dose of calcitonin by oral gavage, in the form of a composition comprising calcitonin and approximately 62 mole percent 1,2 distearoyl-sn-glycero-3-phosphocholine, approximately 22 mole percent dihexadecyl phosphate, and approximately 16 mole percent cholesterol. Blood calcium levels were followed for six hours (FIG. 8). […] This difference was statistically significant (FIG. 8).

With “GLP-1: unassociated GLP-1 peptide, gavaged or injected intraperitoneally as control (HAEGTFTSDVSSYLEGQAAKEFIAWLVKGR; ends and bridges not checked; UniProt P01275 98-127, looked up)” the “Liver Glycogen” value ([1]; intraperitoneal) was 59 ± 44 mg/g liver and the “Liver Glycogen” value ([1]; oral gavage) was 40 ± 22 mg/g liver.

“regular insulin: regular insulin orally dosed to the control group in drinking water” was tested, and the blood glucose [2] was “not altered at all”.

salmon calcitonin was tested, and the “initial reduction in blood calcium” value (normal, fasted rats) was 10%.
